The record followed here is patent US12077537B2 (Gilead Sciences, Inc., priority 2020, dated 2024).

pEC50: −log10 of the molar value.

The test system of this experiment is HIV-IIIb. The experiment in a line: Antiviral assay in MT4 cells. It counts as cell-based. The settings on record: Human immunodeficiency virus 1, MT4, 120 h; MT-4 cells mixed with HIV-IIIb at m.o.i. 0.003; 5 days at 37° C.; CellTiter-Glo luminescence; 50% decrease in signal, a measure of HIV-1 replication. The method in brief: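 Compound, tested at ten 3-fold dilutions in quadruplicate in 10% FBS medium, received MT-4 cells pre-mixed 1 hour with HIV-IIIb (m.o.i. 0.003). Protection was read as luminescent cell viability (CellTiter-Glo) after 5 days' culture at 37° C.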
(In ATP-based viability assays light output follows the ATP content of the culture.)

By pEC50 is commonly meant the EC50 on a negative log10 scale, so that one unit is a factor of ten. Read a high pEC50 as a low EC50. `NC(=O)c1cc(-c2cc3sc(N4CCOCC4)nc3nc2C(Cc2cc(F)cc(F)c2)NC(=O)Cn2nc(C(F)F)c3c2C(F)(F)CCC3(F)F)ccc1F` (stereo not shown) [Compound 18, 5-(5-(1-(2-(3-(difluoromethyl)-4,4,7,7-tetrafluoro-4,5,6,7-tetrahydro-1H-indazol-1-yl)acetamido)-2-(3,5-difluorophenyl)ethyl)-2-morpholinothiazolo[4,5-b]pyridin-6-yl)-2-fluorobenzamide] had a pEC50 of 6.60.

Molecule `O=C(Cn1nc(C(F)(F)F)c2c1C(F)(F)[C@@H]1C[C@H]21)N[C@@H](Cc1cc(F)cc(F)c1)c1nc2nc(-c3ccc(N4CCNCC4)cc3)sc2cc1-c1ccc2c(c1)C(=O)NC2` [Compound 147, 2-((3bS,4aR)-5,5-difluoro-3-(trifluoromethyl)-3b,4,4a,5-tetrahydro-1H-cyclopropa[3,4]cyclopenta[1,2-c]pyrazol-1-yl)-N—((S)-2-(3,5-difluorophenyl)-1-(6-(3-oxoisoindolin-5-yl)-2-(4-(piperazin-1-yl)phenyl)thiazolo[4,5-b]pyridin-5-yl)ethyl)acetamide] gave a pEC50 of 7.43. Compared with the last molecule, the pEC50 is 0.83 log units higher.

The molecule `NC(=O)c1cc(-c2cc3sc(-c4ccccc4)nc3nc2[C@H](Cc2cc(F)cc(F)c2)NC(=O)Cn2nc(C(F)(F)F)c3c2C(F)(F)[C@@H]2C[C@H]32)ccc1F` [Example 118, 5-(5-((S)-1-(2-((3bS,4aR)-5,5-difluoro-3-(trifluoromethyl)-3b,4,4a,5-tetrahydro-1H-cyclopropa[3,4]cyclopenta[1,2-c]pyrazol-1-yl)acetamido)-2-(3,5-difluorophenyl)ethyl)-2-phenylthiazolo[4,5-b]pyridin-6-yl)-2-fluorobenzamide] had a pEC50 of 6.52.

As for `Cn1nc(NS(C)(=O)=O)c2c(Cl)ccc(-c3cc4[nH]c(C(C)(C)O)nc4nc3[C@H](Cc3cc(F)cc(F)c3)NC(=O)Cn3nc(C(F)F)c4c3C(F)(F)[C@@H]3C[C@H]43)c21` [Example 105, N—((S)-1-(6-(4-chloro-1-methyl-3-(methylsulfonamido)-1H-indazol-7-yl)-2-(2-hydroxypropan-2-yl)-1H-imidazo[4,5-b]pyridin-5-yl)-2-(3,5-difluorophenyl)ethyl)-2-((3bS,4aR)-3-(difluoromethyl)-5,5-difluoro-3b,4,4a,5-tetrahydro-1H-cyclopropa[3,4]cyclopenta[1,2-c]pyrazol-1-yl)acetamide], the pEC50 was 8.31. This pEC50 lies 1.79 log units higher than the previous one.

`O=C(Cn1nc(C(F)(F)F)c2c1CCCC2)N[C@@H](Cc1ccccc1)c1nc2ccccc2[nH]1` [Example 1, (S)—N-(1-(1H-benzo[d]imidazol-2-yl)-2-phenylethyl)-2-(3-(trifluoromethyl)-4,5,6,7-tetrahydro-1H-indazol-1-yl)acetamide] showed a pEC50 of 4.53.

`Cn1nc(NS(C)(=O)=O)c2cccc(-c3cc4sc(N5CCC6(CC5)CNC6=O)nc4nc3[C@H](Cc3cc(F)cc(F)c3)NC(=O)Cn3nc(C(F)(F)F)c4c3C(F)(F)[C@@H]3C[C@H]43)c21` [Example 84, 2-((3bS,4aR)-5,5-difluoro-3-(trifluoromethyl)-3b,4,4a,5-tetrahydro-1H-cyclopropa[3,4]cyclopenta[1,2-c]pyrazol-1-yl)-N—((S)-2-(3,5-difluorophenyl)-1-(6-(1-methyl-3-(methylsulfonamido)-1H-indazol-7-yl)-2-(1-oxo-2,7-diazaspiro[3.5]nonan-7-yl)thiazolo[4,5-b]pyridin-5-yl)ethyl)acetamide]: the pEC50 was 8.00.

`Cn1nc(NS(C)(=O)=O)c2cccc(-c3cc4sc(NCC5(O)CC5)nc4nc3[C@H](Cc3cc(F)cc(F)c3)NC(=O)Cn3nc(C(F)(F)F)c4c3C(F)(F)[C@@H]3C[C@H]43)c21` [Example 70, 2-((3bS,4aR)-5,5-difluoro-3-(trifluoromethyl)-3b,4,4a,5-tetrahydro-1H-cyclopropa[3,4]cyclopenta[1,2-c]pyrazol-1-yl)-N—((S)-2-(3,5-difluorophenyl)-1-(2-(((1-hydroxycyclopropyl)methyl)amino)-6-(1-methyl-3-(methylsulfonamido)-1H-indazol-7-yl)thiazolo[4,5-b]pyridin-5-yl)ethyl)acetamide] showed a pEC50 of 7.86.

Regarding `Cn1cc(-c2nc3nc(C(Cc4cc(F)cc(F)c4)NC(=O)Cn4nc(C(F)(F)F)c5c4C(F)(F)[C@@H]4C[C@H]54)c(-c4cccc5c(NS(C)(=O)=O)nn(C)c45)cc3s2)cn1` (stereo partly drawn) [Example 123, 2-((3bS,4aR)-5,5-difluoro-3-(trifluoromethyl)-3b,4,4a,5-tetrahydro-1H-cyclopropa[3,4]cyclopenta[1,2-c]pyrazol-1-yl)-N-(2-(3,5-difluorophenyl)-1-(2-(1-methyl-1H-pyrazol-4-yl)-6-(1-methyl-3-(methylsulfonamido)-1H-indazol-7-yl)thiazolo[4,5-b]pyridin-5-yl)ethyl)acetamide], the pEC50 was 8.07. This pEC50 is 0.21 log units higher than that of the molecule before.

In turn, `COCc1nc2nc([C@H](Cc3cc(F)cc(F)c3)NC(=O)Cn3nc(C(F)(F)F)c4c3C(F)(F)[C@@H]3C[C@H]43)c(-c3ccc(Cl)c4c(NS(C)(=O)=O)nn(C)c34)cc2[nH]1` [Example 101, N—((S)-1-(6-(4-chloro-1-methyl-3-(methylsulfonamido)-1H-indazol-7-yl)-2-(methoxymethyl)-1H-imidazo[4,5-b]pyridin-5-yl)-2-(3,5-difluorophenyl)ethyl)-2-((3bS,4aR)-5,5-difluoro-3-(trifluoromethyl)-3b,4,4a,5-tetrahydro-1H-cyclopropa[3,4]cyclopenta[1,2-c]pyrazol-1-yl)acetamide] gave a pEC50 of 8.68. This pEC50 is 0.61 log units higher than that of the molecule before.

In turn, `NC(=O)c1cc(-c2cc3sc(-c4cncnc4)nc3nc2[C@H](Cc2cc(F)cc(F)c2)NC(=O)Cn2nc(C(F)(F)F)c3c2C(F)(F)[C@@H]2C[C@H]32)ccc1F` [Compound 148, 5-(5-((S)-1-(2-((3bS,4aR)-5,5-difluoro-3-(trifluoromethyl)-3b,4,4a,5-tetrahydro-1H-cyclopropa[3,4]cyclopenta[1,2-c]pyrazol-1-yl)acetamido)-2-(3,5-difluorophenyl)ethyl)-2-(pyrimidin-5-yl)thiazolo[4,5-b]pyridin-6-yl)-2-fluorobenzamide] had a pEC50 of 7.04.

As for `CN(C)C1CCN(c2nc3nc([C@H](Cc4cc(F)cc(F)c4)NC(=O)Cn4nc(C(F)(F)F)c5c4C(F)(F)[C@@H]4C[C@H]54)c(-c4cccc5c(NS(C)(=O)=O)nn(C)c45)cc3s2)CC1` [Example 66, 2-((3bS,4aR)-5,5-difluoro-3-(trifluoromethyl)-3b,4,4a,5-tetrahydro-1H-cyclopropa[3,4]cyclopenta[1,2-c]pyrazol-1-yl)-N—((S)-2-(3,5-difluorophenyl)-1-(2-(4-(dimethylamino)piperidin-1-yl)-6-(1-methyl-3-(methylsulfonamido)-1H-indazol-7-yl)thiazolo[4,5-b]pyridin-5-yl)ethyl)acetamide], the pEC50 was 7.65.

`COCCNc1nc2nc([C@H](Cc3cc(F)cc(F)c3)NC(=O)Cn3nc(C(F)F)c4c3C(F)(F)CCC4(F)F)c(-c3ccc(F)c(C(N)=O)c3)cc2s1` [Compound 12, (S)-5-(5-(1-(2-(3-(difluoromethyl)-4,4,7,7-tetrafluoro-4,5,6,7-tetrahydro-1H-indazol-1-yl)acetamido)-2-(3,5-difluorophenyl)ethyl)-2-((2-methoxyethyl)amino)thiazolo[4,5-b]pyridin-6-yl)-2-fluorobenzamide]: the pEC50 was 6.80.

As to `NC(=O)c1cc(-c2cc3sc(N4CCN(c5ccc(-c6ncc[nH]6)cc5)CC4)nc3nc2[C@H](Cc2cc(F)cc(F)c2)NC(=O)Cn2nc(C(F)F)c3c2C2CC2CC3)ccc1F` (stereo partly drawn) [Compound 41, 5-(2-(4-(4-(1H-imidazol-2-yl)phenyl)piperazin-1-yl)-5-((1S)-1-(2-(3-(difluoromethyl)-5,5a,6,6a-tetrahydrocyclopropa[g]indazol-1(4H)-yl)acetamido)-2-(3,5-difluorophenyl)ethyl)thiazolo[4,5-b]pyridin-6-yl)-2-fluorobenzamide], the pEC50 is 7.01.

`Cn1nc(NS(C)(=O)=O)c2cccc(-c3cc4sc(NCC(C)(C)O)nc4nc3[C@H](Cc3cc(F)cc(F)c3)NC(=O)Cn3nc(C(F)(F)F)c4c3C(F)(F)[C@@H]3C[C@H]43)c21` [Compound 52, 2-((3bS,4aR)-5,5-difluoro-3-(trifluoromethyl)-3b,4,4a,5-tetrahydro-1H-cyclopropa[3,4]cyclopenta[1,2-c]pyrazol-1-yl)-N—((S)-2-(3,5-difluorophenyl)-1-(2-((2-hydroxy-2-methylpropyl)amino)-6-(1-methyl-3-(methylsulfonamido)-1H-indazol-7-yl)thiazolo[4,5-b]pyridin-5-yl)ethyl)acetamide] had a pEC50 of 8.02.

As for `O=C(Cn1nc(C(F)F)c2c1C1CC1CC2)N[C@@H](Cc1cc(F)cc(F)c1)c1nc2nc(N3CCN(c4ccc(-c5ncc[nH]5)cc4)CC3)sc2cc1-c1ccc2c(c1)C(=O)NC2` (stereo partly drawn) [Compound 35, N—((S)-1-(2-(4-(4-(1H-imidazol-2-yl)phenyl)piperazin-1-yl)-6-(3-oxoisoindolin-5-yl)thiazolo[4,5-b]pyridin-5-yl)-2-(3,5-difluorophenyl)ethyl)-2-(3-(difluoromethyl)-5,5a,6,6a-tetrahydrocyclopropa[g]indazol-1(4H)-yl)acetamide], the pEC50 was 7.50.

Molecule `Cc1cc(Nc2nc3nc(C(Cc4cc(F)cc(F)c4)NC(=O)Cn4nc(C(F)F)c5c4C(F)(F)CCC5(F)F)c(-c4ccc(F)c(C(N)=O)c4)cc3s2)[nH]n1` (stereo not shown) [Compound 19, 5-(5-(1-(2-(3-(difluoromethyl)-4,4,7,7-tetrafluoro-4,5,6,7-tetrahydro-1H-indazol-1-yl)acetamido)-2-(3,5-difluorophenyl)ethyl)-2-((3-methyl-1H-pyrazol-5-yl)amino)thiazolo[4,5-b]pyridin-6-yl)-2-fluorobenzamide] showed a pEC50 of 5.98.
